{"source": "paper PMC3906007", "about": "“Discovery of a Small Molecule Agonist of Phosphatidylinositol 3-Kinase p110α That Reactivates Latent HIV-1” (PLoS ONE, 2014)", "key": {"[1]": {"target": "T1, HDAC8 (Homo sapiens, UniProt Q9BY41)", "T1 construct": "purchased BPS Bioscience (San Diego, CA)", "T1 sequence (Q9BY41 1-377)": "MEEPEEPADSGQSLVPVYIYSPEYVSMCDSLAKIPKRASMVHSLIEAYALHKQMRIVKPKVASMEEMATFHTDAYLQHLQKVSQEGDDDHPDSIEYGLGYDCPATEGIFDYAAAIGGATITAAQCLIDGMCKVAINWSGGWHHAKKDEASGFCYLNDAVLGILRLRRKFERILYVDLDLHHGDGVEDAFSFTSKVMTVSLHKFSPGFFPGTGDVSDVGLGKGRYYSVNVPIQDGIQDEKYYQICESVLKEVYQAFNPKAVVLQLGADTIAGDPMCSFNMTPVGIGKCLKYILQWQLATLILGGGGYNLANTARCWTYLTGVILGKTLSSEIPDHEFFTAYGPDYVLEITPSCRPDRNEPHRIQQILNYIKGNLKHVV", "experiment": "Fluorogenic HDAC activity assay, HDAC8", "type": "biochemical", "experimental": "(§1) The lysine deacetylase activity of HDACs 1, 2, 3, and 8 was assessed using the Fluorogenic HDAC Assay (BPS Bioscience, San Diego, CA) according to the manufacturer's instructions. […] All assays were carried out under steady-state conditions and the assay read-out was optimized for linearity both as a function of time and enzyme concentration. The formation of the fluorescent product was measured using a SpectraMax M2 Plate Reader (Molecular Devices, CA). The excitation and emission wavelengths were 360 nm and 450 nm, respectively."}, "[2]": {"test_system": "Akt phosphorylation", "experiment": "Western blot analysis of phosphorylated Akt in J89GFP cells", "type": "cell-based", "conditions": "5 µM 57704", "experimental": "To gain insight into the mechanism by which 57704 reactivates latent HIV-1, we evaluated its activity in combination with inhibitors of different signaling pathways or kinases in J89GFP cells (Fig. 4A, B). […] To determine whether 57704 directly activated the PI3K/Akt signaling pathway, we next assessed the levels of Akt phosphorylation in the J89GFP cells after exposure to 5 µM 57704."}, "[3]": {"test_system": "PI3K p110α RNA", "experiment": "PI3K isoform RNA transcript levels in J89GFP cells, p110α", "type": "cell-based", "conditions": "5 µM"}, "[4]": {"experiment": "Cytotoxicity (MTT or CellTiter 96), HeLa", "type": "cell-based", "conditions": "human, HeLa cells; 24 hour incubation; mean ± SD, 3 replicates", "experimental": "Following a 24 hour incubation period, cell viability was measured using either the MTT (Roche Applied Science, Indianapolis, IN) or CellTiter 96 proliferation (Promega, WI) assay."}, "[5]": {"test_system": "latent HIV-1 in J89GFP cells", "experiment": "Latent HIV-1 reactivation in J89GFP cells (EGFP positive cells, flow cytometry)", "type": "cell-based", "experimental": "(§2) Three different cell lines of HIV-1 latency were used in this study. These included J89GFP, U1 and ACH-2 cells. The J89GFP cells were a kind gift from Dr. David Levy. The ACH-2 and U1 cells were obtained through the AIDS Research and Reference Reagent Program, Division of AIDS, NIAID, NIH: Dr. Thomas Folks contributor [19]–[21]. Reactivation of latent HIV-1 in the J89GFP cells was measured by quantifying the percentage of EGFP positive cells using a BD FACScan flow cytometer with BD FACSDiva software (BD Biosciences, CA), as described previously. Reactivation of latent HIV-1 in the ACH-2 and U 1 cells was assessed by quantitative analysis of initiated and elongated HIV-1 transcripts, as described previously. All 3 cell lines were maintained in RMPI 1640 medium supplemented with 10% FBS, 0.3 mg/mL L-glutamine, 100 U/mL penicillin, and 100 µg/mL streptomycin at 37°C in humidified air with 5% CO2.\nTo identify novel activators of latent HIV-1 expression, we screened 640 pure natural products from the TimTec Natural Compound Library at a concentration of 10 ng/mL for 24 hrs in a Jurkat cell (J89GFP) model of latency for their cytotoxicity and ability to reactivate HIV-1 expression. J89GFP cells contain a stably integrated, full-length HIV-1 provirus with an enhanced GFP (EGFP) reporter incorporated into the viral genome. The viral genome in these cells is transcriptionally silent. However, upon stimulation viral transcription is activated and viral expression can be measured by EGFP production. […]."}, "[6]": {"test_system": "purified T cells", "experiment": "Global T cell activation (surface expression of CD69, CD38 and HLA-DR)", "type": "cell-based", "conditions": "different concentrations, up to 5 days", "description": "Peripheral blood MNC were obtained from the blood of healthy donors by Ficoll-Paque PLUS (GE Healthcare, Piscataway, NJ) density gradient centrifugation. T cells were isolated using the Pan T Cell Isolation kit (Miltenyi Biotec, Auburn, CA) according to manufacturer's instruction. Briefly, non-T cells were depleted from the MNC using biotin-conjugated antibodies to CD14, CD15, CD16, CD19, CD34, CD36, CD56, CD123, and CD235a and anti-biotin-labeled magnetic beads. […] Cells were then washed twice with PBS, resuspended in PBS with 4% PFA and stored in the refrigerator until analysis. Samples were analyzed on a BD LSRII flow cytometer and analyzed using FACsDiva software (BD Biosciences, Mountain View, CA). Forward versus side scatter plot was used to define the live cell population and fluorescence gates were set based on isotype control fluorescence."}, "[7]": {"test_system": "latent HIV-1 in U1 cell line", "experiment": "Latent HIV-1 reactivation in U1 cells (quantitative PCR of early and late viral RNA transcripts)", "type": "cell-based", "experimental": "as §2\nFigure 2 Latent HIV-1 reactivation activity of 57704, alone and in combination with other inducing agents, in the U1 and ACH2 cell line models of virus latency. HIV-1 expression was assessed by quantitative PCR analysis of early and late viral RNA transcripts. Where appropriate, TNFα was used as an activation control. (A) Latent HIV-1 reactivation of activity 57704 in the J89GFP cell line. […] (B) Latent HIV-1 reactivation activity of 57704 in the ACH2 cell line. (C) Latent HIV-1 reactivation of activity 57704 in the U1 cell line. (D) Graph of activation of latent HIV-1 early and late gene transcript expression in the ACH2 and U1 cell lines. EC50 values were determined in Sigma Plot by nonlinear regression, as described previously. (E) Latent HIV-1 reactivation of 5 µM 57704 in combination with 1 µM prostratin in the U1 cell line. […]. (G) Latent HIV-1 reactivation of 5 µM 57704 in combination with 2.5 µM DSF in the U1 cell line. (H) Latent HIV-1 reactivation of 5 µM 57704 in combination with 20 µM BIX-01294 in the U1 cell line. Data represent the mean ± standard deviation from 3 replicate experiments."}, "[8]": {"target": "T2, HDAC2 (Homo sapiens, UniProt Q92769)", "T2 construct": "purchased BPS Bioscience (San Diego, CA)", "T2 sequence (Q92769 whole entry)": "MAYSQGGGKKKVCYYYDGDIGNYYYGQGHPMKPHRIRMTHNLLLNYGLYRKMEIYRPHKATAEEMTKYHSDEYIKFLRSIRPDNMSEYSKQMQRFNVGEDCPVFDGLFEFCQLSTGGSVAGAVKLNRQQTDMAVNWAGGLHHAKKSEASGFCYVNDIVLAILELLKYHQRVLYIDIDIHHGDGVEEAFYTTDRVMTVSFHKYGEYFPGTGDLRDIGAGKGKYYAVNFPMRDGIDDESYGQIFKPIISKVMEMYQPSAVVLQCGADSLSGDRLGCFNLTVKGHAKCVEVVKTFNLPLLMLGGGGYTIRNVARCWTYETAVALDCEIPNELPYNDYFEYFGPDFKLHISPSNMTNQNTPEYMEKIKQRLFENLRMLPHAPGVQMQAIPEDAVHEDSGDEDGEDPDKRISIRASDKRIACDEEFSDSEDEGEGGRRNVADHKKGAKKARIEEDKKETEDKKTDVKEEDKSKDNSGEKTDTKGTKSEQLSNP", "experiment": "biochemical", "conditions": "recombinant purified enzyme; read-out: 57704 IC50, HDAC2", "experimental": "as §1"}, "[9]": {"test_system": "PI3K p110δ RNA", "experiment": "PI3K isoform RNA transcript levels in J89GFP cells, p110δ", "type": "cell-based", "conditions": "5 µM"}, "[10]": {"test_system": "latent HIV-1 in ACH2 cell line", "experiment": "Latent HIV-1 reactivation in ACH2 cells (quantitative PCR of early and late viral RNA transcripts)", "type": "cell-based", "experimental": "as §2\nFigure 2 Latent HIV-1 reactivation activity of 57704, alone and in combination with other inducing agents, in the U1 and ACH2 cell line models of virus latency. HIV-1 expression was assessed by quantitative PCR analysis of early and late viral RNA transcripts. Where appropriate, TNFα was used as an activation control. (A) Latent HIV-1 reactivation of activity 57704 in the J89GFP cell line. […] EC50 values were determined in Sigma Plot by nonlinear regression, as described previously. […]"}, "[11]": {"test_system": "PI3K p110γ RNA", "experiment": "PI3K isoform RNA transcript levels in J89GFP cells, p110γ", "type": "cell-based", "conditions": "5 µM"}}, "note": "Read-outs that look alike come from different tables or passages of the source.", "data": [{"smiles": "COc1cc2c(cc1OC)-c1c(OC)c(OC)cc3ccnc(c13)C2=O", "note": "[Compound 57704, 1,2,9,10-tetramethoxy-7H-dibenzo[de,g]quinolin-7-one]", "values": [{"measurement": "IC50", "setting": "[1]", "value": "> 50", "unit": "µM"}, {"measurement": "Akt phosphorylation (Western blot)", "setting": "[2]", "value": "increased Akt phosphorylation"}, {"measurement": "Effect on PI3K p110α RNA transcript levels", "setting": "[3]", "value": "no effect"}, {"measurement": "CC50 at 24 h", "setting": "[4]", "value": "293 ± 56.4", "unit": "µM"}, {"measurement": "EC50", "setting": "[5]; Human immunodeficiency virus 1, read-out: EC50, reactivation of latent HIV-1 gene expression", "value": "10.3 ± 1.2", "unit": "µM"}, {"measurement": "Latent HIV-1 reactivation activity in presence of PI3K inhibitor wortmannin", "setting": "[5]; J89GFP, 20 nM wortmannin", "value": "significantly attenuated"}, {"measurement": "Latent HIV-1 reactivation activity in presence of p38 MAPK inhibitor SB203580", "setting": "[5]; J89GFP, 50 nM SB203580", "value": "unaffected"}, {"measurement": "Latent HIV-1 reactivation activity in presence of Akt Inhibitor IV", "setting": "[5]; J89GFP, 500 nM Akt Inhibitor IV", "value": "significantly attenuated"}, {"measurement": "Latent HIV-1 reactivation activity in presence of PKC inhibitor Gö6983", "setting": "[5]; J89GFP, 500 nM Go6983", "value": "unaffected"}, {"measurement": "Latent HIV-1 reactivation activity in presence of JNK inhibitor SP600125", "setting": "[5]; J89GFP, 1 µM SP00125", "value": "unaffected"}, {"measurement": "Latent HIV-1 reactivation activity in presence of NFAT/calcineurin inhibitor cyclosporin A", "setting": "[5]; J89GFP, 1 µM cyclosporin A", "value": "unaffected"}, {"measurement": "Latent HIV-1 reactivation activity in presence of PI3K p110γ inhibitor AS-605240", "setting": "[5]; J89GFP, 2 µM AS-605240", "value": "moderately enhanced"}, {"measurement": "Latent HIV-1 reactivation activity in presence of PI3K p110α specific inhibitor PI-103", "setting": "[5]; J89GFP, 2 µM PI-103", "value": "significantly attenuated"}, {"measurement": "Latent HIV-1 reactivation activity in presence of PI3K p110β inhibitor TGX-221", "setting": "[5]; J89GFP, 2 µM TGX-221", "value": "moderately enhanced"}, {"measurement": "Latent HIV-1 reactivation activity in presence of PI3K p110δ inhibitor IC87114", "setting": "[5]; J89GFP, 5 µM IC87114", "value": "not reduced"}, {"measurement": "Latent HIV-1 reactivation activity in presence of pan PI3K inhibitor LY 294002", "setting": "[5]; J89GFP, 15 µM LY294002", "value": "significantly attenuated"}, {"measurement": "Latent HIV-1 reactivation activity in presence of NF-κB inhibitor 6-amino-4-(4-phenoxyphenylethylamino) quinazoline", "setting": "[5]; J89GFP, 20 µM NF-κB activation inhibitor", "value": "significantly attenuated"}, {"measurement": "Surface expression of CD69, CD38 and HLA-DR", "setting": "[6]", "value": "did not up-regulate"}, {"measurement": "EC50", "setting": "[7]; Human immunodeficiency virus 1, read-out: EC50, activation of early HIV-1 gene transcript expression", "value": 8.2, "unit": "µM"}, {"measurement": "EC50", "setting": "[7]; Human immunodeficiency virus 1, read-out: EC50, activation of late HIV-1 gene transcript expression", "value": 4.9, "unit": "µM"}, {"measurement": "Latent HIV-1 reactivation activity in combination with prostratin", "setting": "[7]; U1, 5 µM 57704 + 1 µM prostratin", "value": "increased in an additive manner"}, {"measurement": "Latent HIV-1 reactivation activity in combination with DSF", "setting": "[7]; U1, 5 µM 57704 + 2.5 µM DSF", "value": "increased in an additive manner"}, {"measurement": "Latent HIV-1 reactivation activity in combination with SAHA", "setting": "[7]; U1, 5 µM 57704 + 5 µM SAHA", "value": "increased in an additive manner"}, {"measurement": "Latent HIV-1 reactivation activity in combination with BIX-01294", "setting": "[7]; U1, 5 µM 57704 + 20 µM BIX-01294", "value": "increased in an additive manner"}, {"measurement": "IC50", "setting": "[8]", "value": "> 50", "unit": "µM"}, {"measurement": "Effect on PI3K p110δ RNA transcript levels / gene expression", "setting": "[9]", "value": "no effect"}, {"measurement": "EC50", "setting": "[10]; Human immunodeficiency virus 1, ACH-2, read-out: EC50, activation of early HIV-1 gene transcript expression", "value": 9, "unit": "µM"}, {"measurement": "EC50", "setting": "[10]; Human immunodeficiency virus 1, ACH-2, read-out: EC50, activation of late HIV-1 gene transcript expression", "value": 6.2, "unit": "µM"}, {"measurement": "Effect on PI3K p110γ RNA transcript levels", "setting": "[11]", "value": "no effect"}]}]}
